Experimental data published in patent US20060241082A1, “Modulating vesicular monoamine transporter trafficking and function: a novel approach for the treatment of parkinson's disease” (priority 2002, published 2006).
Counter-ions that a name gives are not always drawn.

How the values were obtained:
DAT [1] = target: T1, DAT (Rattus norvegicus, UniProt P23977); assay: In vitro preincubation of striatal synaptosomes with MDMA: [3H]DA uptake and WIN35428 binding; assay type: biochemical; settings: 10 μM inhibitor 5 min, then 10 μM MDMA 30 min at 37° C.
T1 construct: from tissue; host or cells: striatum of male Sprague-Dawley rats (synaptosomes, P2)
T1 sequence (P23977 whole entry): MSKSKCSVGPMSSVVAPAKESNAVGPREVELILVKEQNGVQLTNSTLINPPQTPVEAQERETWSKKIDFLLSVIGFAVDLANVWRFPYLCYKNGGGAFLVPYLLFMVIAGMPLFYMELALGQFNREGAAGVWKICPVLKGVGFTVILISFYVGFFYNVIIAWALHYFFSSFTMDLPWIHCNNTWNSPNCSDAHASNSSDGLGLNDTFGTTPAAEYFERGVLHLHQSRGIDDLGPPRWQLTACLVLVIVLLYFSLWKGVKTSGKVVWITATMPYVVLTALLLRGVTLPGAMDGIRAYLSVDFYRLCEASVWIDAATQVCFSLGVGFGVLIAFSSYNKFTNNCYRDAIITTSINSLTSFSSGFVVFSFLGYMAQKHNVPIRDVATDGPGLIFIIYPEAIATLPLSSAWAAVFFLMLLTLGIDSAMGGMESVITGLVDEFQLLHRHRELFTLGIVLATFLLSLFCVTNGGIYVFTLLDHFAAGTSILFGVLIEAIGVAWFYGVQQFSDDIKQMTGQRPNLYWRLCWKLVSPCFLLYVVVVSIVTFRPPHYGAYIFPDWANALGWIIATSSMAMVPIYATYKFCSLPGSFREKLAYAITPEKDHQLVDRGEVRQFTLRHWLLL
Method: (§1) Uptake of [^3H]DA was determined in striatal synaptosomes prepared according to the method described by Kokoshka et al. (1998). Briefly, fresh striatal tissue was homogenized in cold 0.32 M sucrose and centrifuged (800×g for 12 min; 4° C.). The supernatant (S1) was then centrifuged (22,000×g for 15 min; 4° C.), and the resulting pellet (P2) was resuspended in ice-cold modified Kreb's buffer (in mM: 126 NaCl, 4.8 KCl, 1.3 CaCl2, 16 sodium phosphate, 1.4 MgSO4, 11 dextrose, 1-ascorbic acid, pH 7.4). Assays were conducted in Kreb's buffer. Each assay tube contained synaptosomal tissue (i.e., resuspended P2 obtained from 1.5 mg of original wet weight striatal tissue) and 1 μM pargyline. Nonspecific values were determined in the presence of 100 μM cocaine. After preincubation of assay tubes for 10 min at 37° C., assays were initiated by the addition of [^3H]DA (0.5 nM final concentration). Samples were incubated at 37° C. for 3 min. Samples were then filtered through Whatman GF/B filters (Brandel, Gaithersburg, Md.) soaked previously in 0.05% polyethylenimine. Filters were washed rapidly 3 times with 3 ml of ice-cold 0.32 M sucrose using a Brandel filtering manifold. […] Remaining resuspended P2 samples were assayed for protein concentrations according to the method of Lowry et al. (1951). In MDMA preincubation experiments, samples were preincubated with 10 μM MDMA for 30 min at 37° C. After 30 min, resuspended P2 fractions were “washed” by centrifugation (22,000×g for 15 min; 4° C.). The resulting pellet (P3) was then resuspeded in ice-cold Kreb's buffer, and once again centrifuged (22,000×g for 15 min; 4° C.) to obtain a P4 pellet that was subsequently resuspended and assayed. [^3H]WIN35428 binding (0.5 nM final concentration) was conducted in phosphate-buffered 0.32 M sucrose, pH 7.4, with synaptosomes obtained from 2 mg (original wet weight) of striatal tissue per reaction tube, and samples were incubated on ice for 2 hr. Samples were then filtered through Whatman GF/B filters (Brandel, Gaithersburg, Md.) soaked previously in 0.05% polyethylenimine. Filters were washed rapidly 3 times with 3 ml of ice-cold 0.32 M sucrose using a Brandel filtering manifold. […] Remaining resuspended P2 samples were assayed for protein concentrations according to the method of Lowry et al. (1951).

DAT [2] = target: T1, DAT; assay: [3H]WIN35428 binding in striatal synaptosomes prepared from treated rats; assay type: in vivo; settings: αMT 150 mg/kg i.p., MDMA 4 x 10 mg/kg s.c.
Method: as §1

[3] = Striatal tissue DA content of treated rats (HPLC); assay type: in vivo, rat
Method: On the day of the assay, frozen tissue samples were thawed, sonicated for 3-5 s in tissue buffer (0.05 M sodium phosphate/0.03 M citric acid buffer with 15% methanol (v/v); pH 2.78), and centrifuged for 15 min at 22,000×g. Tissue pellets were retained and protein determined according to the method of Lowry et al. (1951). The supernatant was centrifuged a second time for 15 min at 22,000×g. 20 μl of supernatant were injected onto a high performance liquid chromatograph system coupled to an electrochemical detector (+0.73 V) for separation and quantitation of dopamine levels using the method of Chapin et al. (1986).

[4] = target: T2, plasmalemmal DA transporter (DAT) (Rattus norvegicus, UniProt P23977); assay: Plasmalemmal [3H]DA uptake in striatal synaptosomes prepared from treated rats; assay type: in vivo; settings: αMT 150 mg/kg i.p. 5 and 1 h prior to and 3 h after first MDMA injection, MDMA 4 x 10 mg/kg s.c.
T2 construct: from tissue; host or cells: striatum of male Sprague-Dawley rats (synaptosomes, P2)
T2 sequence (P23977 whole entry): as above
Method: Uptake of [^3H]DA was determined in striatal synaptosomes prepared according to the method described by Kokoshka et al. (1998). Briefly, fresh striatal tissue was homogenized in cold 0.32 M sucrose and centrifuged (800×g for 12 min; 4° C.). The supernatant (S1) was then centrifuged (22,000×g for 15 min; 4° C.), and the resulting pellet (P2) was resuspended in ice-cold modified Kreb's buffer (in mM: 126 NaCl, 4.8 KCl, 1.3 CaCl2, 16 sodium phosphate, 1.4 MgSO4, 11 dextrose, 1-ascorbic acid, pH 7.4). Assays were conducted in Kreb's buffer. Each assay tube contained synaptosomal tissue (i.e., resuspended P2 obtained from 1.5 mg of original wet weight striatal tissue) and 1 μM pargyline. Nonspecific values were determined in the presence of 100 μM cocaine. After preincubation of assay tubes for 10 min at 37° C., assays were initiated by the addition of [^3H]DA (0.5 nM final concentration). Samples were incubated at 37° C. for 3 min. Samples were then filtered through Whatman GF/B filters (Brandel, Gaithersburg, Md.) soaked previously in 0.05% polyethylenimine. Filters were washed rapidly 3 times with 3 ml of ice-cold 0.32 M sucrose using a Brandel filtering manifold. […] Remaining resuspended P2 samples were assayed for protein concentrations according to the method of Lowry et al. (1951). In MDMA preincubation experiments, samples were preincubated with 10 μM MDMA for 30 min at 37° C. After 30 min, resuspended P2 fractions were “washed” by centrifugation (22,000×g for 15 min; 4° C.). The resulting pellet (P3) was then resuspeded in ice-cold Kreb's buffer, and once again centrifuged (22,000×g for 15 min; 4° C.) to obtain a P4 pellet that was subsequently resuspended and assayed. [^3H]WIN35428 binding (0.5 nM final concentration) was conducted in phosphate-buffered 0.32 M sucrose, pH 7.4, with synaptosomes obtained from 2 mg (original wet weight) of striatal tissue per reaction tube, and samples were incubated on ice for 2 hr. Samples were then filtered through Whatman GF/B filters (Brandel, Gaithersburg, Md.) soaked previously in 0.05% polyethylenimine. […]

[5] = Vesicular DA content in purified striatal vesicles of treated rats; assay type: in vivo, rat; settings: rats, reserpine 10 mg/kg i.p. 6 and 1 h before decapitation
Method: Purified striatal vesicles were prepared as described above. The resulting vesicular pellet was sonicated for approximately 5 sec in cold tissue buffer (0.05 M sodium phosphate/0.03 M citric acid buffer with 15% methanol (v/v); pH 2.5) at a concentration of 100 mg/ml (original wet weight of tissue), and centrifuged for 15 min at 22,000×g. Tissue pellets were retained and protein was determined according to the method of Lowry et al. (1951). 40 μl of supernatant was injected onto a high performance liquid chromatograph system coupled to an electrochemical detector (+0.73 V) for separation and quantitation of DA levels using the method of Chapin et al. (1986).

VMAT-2 [6] = assay: VMAT-2 immunoreactivity in striatal subcellular fractions (P2, P3, S3) of treated rats (Western blot); assay type: in vivo, rat; settings: 1 h
Method: Striatal synaptosomes were prepared from rats decapitated 1 h after treatment as previously described (Fleckenstein et al., 1997). Briefly, striatal tissue was homogenized in cold 0.32 M sucrose and centrifuged (800×g for 12 min; 4° C.). The supernatant (S1) was then centrifuged (22,000×g for 15 min; 4° C.) and the resulting pellet (P2, synaptosomal fraction) was resuspended at 50 mg original wet weight/ml in cold water and a portion saved for western blot analysis. The remainder of the synaptosomal sample was centrifuged for 20 min at 22,000×g (4° C.) to pellet lysed synaptosomal membranes (P3, synaptosomal membrane fraction), which were then resuspended at 50 mg original wet weight/ml and saved for western blot analysis. Prior to resuspension of the plasmalemmal membrane fraction the supernatant (S3, vesicle-enriched fraction) was removed and saved for western blot analysis.
Binding of VMAT-2 antibody was performed using 60 μl aliquots of synaptosomal (P2), synaptosomal membrane (P3), or vesicle-enriched (S3) preparations. Each aliquot was added to 20 μl of loading buffer (final concentration: 2.25% sodium dodecyl sulfate, 18% glycerol, 180 mM Tris base (pH 6.8), 10% β-mercapto-ethanol and bromophenol blue), boiled for 10 min, and loaded on a 10% sodium dodecyl sulfate-polyacrylamide gel. Following electrophoresis, samples were transferred to polyvinlylidene difluoride membrane, blocked with 5% nonfat dry milk in Tris-buffered saline with tween (250 mM NaCl, 50 mM Tris pH 7.4 and 0.05% Tween 20), and probed with the VMAT-2 antibody (provided by J.W.H.). Bound antibody was visualized with HRP-conjugated goat anti-rabbit antibody, and antigen-antibody complexes were visualized by chemiluminescence. Multiple exposures of blots were obtained to ensure development within the linear range of the film. Bands on blots were quantified by densitometry using Kodak 1D image-analysis software.
Fresh striatal tissue was homogenized in ice-cold 0.32 M sucrose and centrifuged (800×g for 12 min; 4° C.). […] Resuspended tissue was aliquoted into two test tubes. One aliquot was centrifuged (22,000×g for 10 min; 4° C.) to separate plasmalemmal membranes from the synaptic vesicle-enriched fraction. The resulting supernatant (S3) contained the vesicular subcellular fraction of interest, and the pellets (P3; plasmalemmal membrane fraction) were resuspended in cold distilled deionized water.
VMAT-2 antibody was purchased from Chemicon (Temecula, Calif.; AB1767). Binding of VMAT-2 antibody was performed using 60 μl of whole synaptosomal, plasmalemmal membrane or vesicle subcellular fractions. Samples were added to 20 μl of loading buffer (final concentration: 2.25% SDS, 18% glycerol, 180 mM Tris Base (pH 6.8), 10% […] and bromophenol blue). Approximately 60 μg protein of the whole synaptosomal fraction, 40 μg protein of the plasmalemmal membrane fraction or 20 μg protein of the vesicle subcellular fraction was loaded per well in a 10% SDS-polyacrylamide gel. Following electrophoresis, samples were transferred to polyvinylidene difluoride hybridization transfer membrane (New England Nuclear (NEN), Boston, Mass.). All subsequent incubation steps were performed at room temperature while shaking. Each membrane was first blocked for 2 h in 100 ml of tris buffer saline with tween (TBST; 250 mM NaCl, 50 mM tris pH 7.4 and 0.05% tween 20) containing 5% nonfat dry milk. Each membrane was then incubated with anti-VMAT-2 antibody (1:4000 dilution) in 13 ml of TBST with 5% milk for 1 h and then washed 5 times (2×1 min wash; 3×5 min wash) in 70 ml TBST with 5% milk.

VMAT-2 [7] = target: T3, VMAT-2 (Rattus norvegicus, UniProt Q01827); assay type: in vivo; design: purified striatal vesicles prepared from treated rats; from tissue; host or cells: striatum of male Sprague-Dawley rats (synaptic vesicles; P2, P3, S3 fractions)
T3 sequence (Q01827 whole entry): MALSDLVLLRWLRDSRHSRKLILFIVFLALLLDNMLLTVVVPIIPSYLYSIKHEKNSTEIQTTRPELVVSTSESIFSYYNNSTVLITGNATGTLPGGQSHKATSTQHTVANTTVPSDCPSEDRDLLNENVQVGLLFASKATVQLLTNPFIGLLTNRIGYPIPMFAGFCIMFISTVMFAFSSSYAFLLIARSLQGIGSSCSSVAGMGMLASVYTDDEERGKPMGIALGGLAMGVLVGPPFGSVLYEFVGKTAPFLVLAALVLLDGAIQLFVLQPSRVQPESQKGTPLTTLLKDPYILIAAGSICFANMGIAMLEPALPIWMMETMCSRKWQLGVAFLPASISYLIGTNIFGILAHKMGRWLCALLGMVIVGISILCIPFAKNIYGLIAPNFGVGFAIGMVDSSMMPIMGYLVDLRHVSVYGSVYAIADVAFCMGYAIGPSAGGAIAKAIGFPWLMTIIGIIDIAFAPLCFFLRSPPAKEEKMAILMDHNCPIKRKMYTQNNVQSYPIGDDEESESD
Method: Osmolarity was restored by addition of N-(2-hydroxyethyl)-piperazine-N′-2-ethanesulfonic acid (HEPES) and potassium tartrate 25 mM and 100 mM (final concentrations; pH 7.5 at 4° C.), respectively.

VMAT-2 [8] = target: VMAT-2 (Mus musculus, UniProt Q8BRU6); assay: Vesicular [3H]dopamine uptake in striatal vesicles prepared from treated mice; assay type: in vivo; settings: antagonist 2 mg/kg i.p. prior to each methamphetamine injection (4 x 10 mg/kg s.c.), 1 h
Sequence of VMAT-2 (Mus musculus, UniProt Q8BRU6) (Q8BRU6 whole entry): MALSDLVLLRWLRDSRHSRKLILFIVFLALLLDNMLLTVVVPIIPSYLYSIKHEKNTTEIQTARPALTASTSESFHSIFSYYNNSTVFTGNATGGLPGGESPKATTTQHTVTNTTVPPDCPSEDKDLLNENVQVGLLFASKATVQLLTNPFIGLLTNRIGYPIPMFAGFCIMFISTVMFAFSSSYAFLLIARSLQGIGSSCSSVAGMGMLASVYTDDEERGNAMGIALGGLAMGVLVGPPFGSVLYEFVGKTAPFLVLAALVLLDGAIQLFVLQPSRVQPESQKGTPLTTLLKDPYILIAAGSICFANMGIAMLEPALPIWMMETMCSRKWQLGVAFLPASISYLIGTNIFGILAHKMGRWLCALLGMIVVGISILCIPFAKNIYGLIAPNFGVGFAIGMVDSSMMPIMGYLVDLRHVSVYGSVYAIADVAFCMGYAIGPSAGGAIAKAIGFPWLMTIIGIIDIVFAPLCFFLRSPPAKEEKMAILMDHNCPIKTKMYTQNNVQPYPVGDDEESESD
Method: (A. E. Fleckenstein, et al., J. Pharmacol Exp Ther. (1997) 282:834-838). Briefly, fresh tissue was homogenized in ice-cold 0.32 M sucrose. The homogenate was centrifuged (800×g for 12 min; 4° C.), and the supernatant (S1) was carefully removed and centrifuged (22,000×g for 15 min; 4° C.) to obtain the synaptosomal-containing pellet (P2). The resulting P2 were resuspended and homogenized in ice-cold distilled deionized water. Osmolarity was restore by addition 25 mM HEPES and 100 mM potassium tartrate (final concentration; pH 7.5 at 4° C. respectively). […] The resultant S3 removed and MgSO4 added (final concentration of [1 mM] pH 7.5 at 4° C.) and centrifuged at 100,000×g for 45 min. The final P4 were resuspended at 50 mg/ml (original tissue wet weight).

VMAT-2 [9] = target: T3, VMAT-2; assay: [3H]DHTBZ binding in purified striatal vesicles prepared from treated rats; settings: rats
Method: Synaptic vesicles were obtained from synaptosomes prepared from rat striatum as described above. Synaptosomes were resuspended and homogenized in cold distilled deionized water. Osmolarity was restored by addition of HEPES and potassium tartrate 245 and 100 mM (final concentrations; pH 7.5), respectively. Samples were centrifuged for 20 min at 20,000×g (4° C.) to remove lysed synaptosomal membranes. MgSO4 (1 mM, final concentration) was added to the supernatant, which was then centrifuged for 45 min at 100,000×g (4° C.). The resulting vesicular pellet was resuspended in wash buffer at a concentration of 50 mg/ml (original tissue weight). […] Binding of [^3H]DHTBZ was performed as described by Teng et al. (1998). Briefly, 200 μl of the synaptic vesicle preparation (˜6 μg of protein) was incubated in wash buffer in the presence of [^3H]DHTBZ (2 nM final concentration) for 10 min at 25° C. The reaction was terminated by addition of 1 ml of cold wash buffer and rapid filtration through Whatman GF/F filters soaked in 0.5% polyethylenimine. Filters were washed three times with ice-cold wash buffer. Nonspecific binding was determined by coincubation with 20 μM tetrabenazine. All protein concentrations were determined by a BioRad protein assay (Bio-Rad, Richmond, Calif.).
Binding of [^3H]DHTBZ was performed as described by Teng et al. (1998). Briefly, 200 μl (˜6 μg protein) of the synaptic vesicle preparation was incubated in wash buffer in the presence of [^3H]DHTBZ (2 nM final concentration except in kinetic analyses wherein 0.25-500 nM DHTBZ was employed) for 10 m in at 25° C. The reaction was terminated by addition of 1 ml cold wash buffer and rapid filtration through Whatman GF/F filters soaked in 0.5% polyethylenimine. Filters were washed three times with ice-cold wash buffer. Radioactivity trapped in filters was counted using a liquid scintillation counter. Nonspecific binding was determined by coincubation with 20 μM TBZ. All protein concentrations were determined by a Bio-Rad protein assay (Bio-Rad Inc.).
Binding of[^3H]DHTBZ was performed as described by Teng et al. (1998). Briefly, 200 μl (˜5 μg protein) of the synaptic vesicle preparation was incubated in wash buffer in the presence of [^3H]DHTBZ (2 nM final concentration except in kinetic analyses wherein 0.25-500 nM DHTBZ was employed) for 10 m in at 25° C. The reaction was terminated by addition of 1 ml cold wash buffer and rapid filtration through Whatman GF/F filters soaked in 0.5% polyethylenimine. Filters were washed three times with ice-cold wash buffer. Radioactivity trapped in filters was counted using a liquid scintillation counter. Nonspecific binding was determined by coincubation with 20 μM TBZ. All protein concentrations were determined by a Bio-Rad protein assay (Bio-Rad Inc.).

For `CCCCCCCCCCCCC(=O)N1CCCCC1CNC(=O)[C@@H](N)CCCCN.Cl.Cl` (some centres unmarked) [NPC15437], the “effect of PKC inhibitor pretreatment on the MDMA-induced deficit in vitro” value (DAT [1]) was “attenuated”.
With `CC(N)(Cc1ccc(O)cc1)C(=O)O.Cl` (stereo not drawn) [αMT, α-methyl-p-tyrosine hydrochloride] the “effect of αMT pretreatment on the MDMA-induced deficit in WIN35428 binding” value (DAT [2]) was “did not prevent”, the “striatal DA levels” value ([3]; αMT-treated rats, 150 mg/kg i.p.) was 10.1±2.0 pg/1 μg protein and the “effect of αMT pretreatment on the MDMA-induced decrease in DAT activity” value [4] was “did not affect”.
For `CC(=O)O.Cn1cc(C2=C(c3cn(CCCN)c4ccccc34)C(=O)NC2=O)c2ccccc21` [Ro31-7549, 2-[1-3(Aminopropyl)indol-3-yl]-3(1-methylindol-3-yl)maleimide, acetate], the “effect of PKC inhibitor pretreatment on the MDMA-induced deficit in vitro” value (DAT [1]) was “attenuated”.
With `COC(=O)[C@H]1[C@H]2C[C@@H]3c4[nH]c5cc(OC)ccc5c4CCN3C[C@H]2C[C@@H](OC(=O)c2cc(OC)c(OC)c(OC)c2)[C@@H]1OC` [reserpine] the “depletion in total striatal tissue DA levels” value ([3]; rats, reserpine 10 mg/kg i.p. 6 and 1 h before decapitation) was greater than 98% and the “striatal vesicular DA levels” value [5] was “below the detection limit”.
For `COC(=O)[C@H]1[C@@H](OC(=O)c2ccccc2)C[C@@H]2CC[C@H]1N2C` [cocaine, (−)cocaine hydrochloride], the “decrease in VMAT-2 immunoreactivity in the P3 (synaptosomal membrane) fraction” value (VMAT-2 [6]; cocaine 30 mg/kg i.p. single) was 33% and the “increase in VMAT-2 immunoreactivity in the S3 (vesicle-enriched) fraction” value (VMAT-2 [6]; cocaine 30 mg/kg i.p. single) was 80%.
With `CCc1cc(Cl)c(OC)c(C(=O)NC[C@@H]2CCCN2CC)c1O` [eticlopride, (−)-Eticlopride hydrochloride] the “effect of antagonist pretreatment on the METH-induced decrease in vesicular [3H]DA uptake” value (VMAT-2 [7]; rat, in vivo) was “attenuated”, the “effect of eticlopride on the MDMA-induced decrease in vesicular DA uptake” value (VMAT-2 [7]; rat, in vivo) was “attenuated” and the “vesicular [3H]DA uptake after antagonist per se” value (VMAT-2 [7]; rats, antagonist 0.5 mg/kg i.p.) was “did not affect”. The “effect of antagonist pretreatment on the MPD-induced increase in vesicular [3H]DA uptake” value (VMAT-2 [7]; rats, antagonist 0.5 mg/kg i.p. 15 min prior to MPD 40 mg/kg s.c., 1 h) was “attenuated”, the “effect of antagonist pretreatment on the methamphetamine-induced decrease in vesicular dopamine uptake” value (VMAT-2 [8]) was “attenuated” and the “effect of antagonist pretreatment on the MPD-induced increase in VMAT-2 immunoreactivity in the vesicular subcellular fraction” value (VMAT-2 [6]; antagonist 0.5 mg/kg i.p. 15 min prior to MPD 40 mg/kg s.c.) was “completely prevented”. For the same compound, the “[3H]DHTBZ binding after antagonist per se” value (VMAT-2 [9]; antagonist 0.5 mg/kg i.p.) was “did not affect” and the “effect of antagonist pretreatment on the MPD-induced increase in [3H]DHTBZ binding” value (VMAT-2 [9]; antagonist 0.5 mg/kg i.p. 15 min prior to MPD 40 mg/kg s.c., 1 h) was “completely prevented”.
